Data: patent US20090281054A1, “COMPOSITIONS AND METHODS COMPRISING CAPURAMYCIN ANALOGUES” (priority 2008, published 2009)
Values after ≈ are worked out from the molar mass of the structure shown. Read-outs that look alike come from different tables or passages of the source.

Legend:
M. smegmatis = assay: Synergy by checkerboard titration (microdilution); format: cell-based
M. abscessus = assay: Synergy by checkerboard titration (microdilution); format: cell-based
MAC = assay: Synergy by checkerboard titration (microdilution); format: cell-based, M. avium complex; details: for MIC: Mycobacterium avium, drug alone
[1] = test system: Mycobacterium tuberculosis (MTB); assay: MIC by BACTEC radiometric method; format: cell-based
Procedure: Determination of MIC. MIC of drugs for laboratory and clinical strains of Mycobacterium tuberculosis (MTB) was determined by BACTEC radiometric method as described by Heifets (1991), “Antituberculosis Drugs: Antimicrobial Activity in vitro, Drug Susceptibility in the Chemotherapy of Microbacterial Infections, Boca Raton, Fla., CRC Press and Luna-Herrera et al., Antimicrob. Agents and Chemother. 1995, 39(2), 440-444. […] The minimal inhibitory concentration (MIC) was defined as the lowest concentrations of drug that caused GI equal to or less than that of the 1/100 dilution growth control. Capuramycin analogues SQ641, SQ922 and SQ997 were tested at concentrations ranging from […].

[2] = test system: M. smegmatis (MSMG; MC2155); assay: MIC by microdilution method in 7H9 broth; format: cell-based; details: MSMG MC^2155, 72 hr
MTB-H37Rv = assay: Post-antibiotic effect (PAE); format: cell-based, Mycobacterium tuberculosis
Procedure: PAE of SQ641. PAE of SQ641 was determined as described (Chan et al. Antimicrob. Agents Chemother., 2004, 48(1), 340-343). At the end of incubation, suspensions were diluted 1/25, and 0.1 ml was injected into each of triplicate BACTEC vials: drug dilution was 1000-fold in the BACTEC vials. Drug carryover controls (to ascertain absence of any carryover drug) consisting of the same MTB suspension as in the test and similar drug dilutions were mixed immediately, diluted 1/25, and 0.1 ml was injected into BACTEC vials. BACTEC vials were incubated at 37° C. and read in a BACTEC TB-460 reader every 24 hr until the cumulative GI in the control reached 999. PAE was calculated from the formula PAE=T−C, where T is the time required for the drug-exposed organisms to reach a cumulative GI of 100 and C is the time required for the controls to reach a cumulative GI of 100.
PAE determines the time required for the organisms to recover following exposure to an antimicrobial agent for a short duration. PAE activities of both SQ641 and INH, each at 4 μg/ml, were investigated with MTB-H37Rv. Following 2 hr of exposure to drugs, the PAE of INH was 17 hr as compared to 55 hr for SQ641. The PAE of SQ641 was over 3 times that of INH.

[3] = test system: intracellular MTB (MTBp-SMT1) in J774A.1 macrophages; assay: Intracellular activity of SQ641-TPGS micelles; format: cell-based, Mycobacterium tuberculosis

CCCCCCCCCC(=O)O[C@@H]1[C@H](OC)[C@@H]([C@@H](O[C@H]2OC(C(=O)N[C@H]3CCC[C@@H](C)NC3=O)=C[C@H](O)[C@@H]2O)C(N)=O)O[C@H]1n1ccc(=O)[nH]c1=O [SQ641]
ΣFIC (M. smegmatis; M. smegmatis, SQ641 + EMB): 0.375 | ΣFIC (M. smegmatis; M. smegmatis, SQ641 + INH): 0.25 | ΣFIC (M. smegmatis; M. smegmatis, SQ641 + RIF): 0.75 | ΣFIC (M. smegmatis; M. smegmatis, SQ641 + SM): 1.0 | MIC Combination (M. smegmatis; M. smegmatis, combination SQ641 + EMB): 0.25 µg/mL | MIC Combination (M. smegmatis; M. smegmatis, combination SQ641 + INH): 0.25 µg/mL | MIC Combination (M. smegmatis; M. smegmatis, combination SQ641 + RIF): 1.0 µg/mL | MIC Combination (M. smegmatis; M. smegmatis, combination SQ641 + SM): 1.0 µg/mL | Synergy with other anti-mycobacterial drugs (M. smegmatis; MSMG): synergy in combination with INH and EMB in MSMG | MIC (M. smegmatis; Mycolicibacterium smegmatis, M. smegmatis, drug alone): 2 µg/mL | MIC (M. abscessus; Mycobacteroides abscessus, drug alone): 0.5 µg/mL | ΣFIC (M. abscessus; SQ641 + RFB): 0.25 | ΣFIC (M. abscessus; SQ641 + SM): 0.375 | MIC Combination (M. abscessus; combination SQ641 + RFB): 0.062 µg/mL | MIC Combination (M. abscessus; combination SQ641 + SM): 0.062 µg/mL | ΣFIC (MAC; MAC A5, SQ641 + AMK): 0.75 | ΣFIC (MAC; MAC A5, SQ641 + CLA, ≦0.5 synergistic, ≧4.0 antagonistic): 0.75 | MIC Combination (MAC; MAC A5, combination SQ641 + AMK): 0.125 µg/mL | MIC Combination (MAC; MAC A5, combination SQ641 + CLA): 0.125 µg/mL | MIC Combination (MAC; MAC A5, combination SQ641 + EMB): 0.062 µg/mL | ΣFIC (MAC; MAC JSH1, SQ641 + AMK): 0.625 | ΣFIC (MAC; MAC JSH1, SQ641 + CLA): 2.0 | MIC Combination (MAC; MAC JSH1, combination SQ641 + AMK): 0.125 µg/mL | MIC Combination (MAC; MAC JSH1, combination SQ641 + CLA): 1 µg/mL | MIC Combination (MAC; MAC JSH1, combination SQ641 + EMB): 0.25 µg/mL | ΣFIC (MAC; MAC NIH C1-1, SQ641 + AMK): 1.0 | ΣFIC (MAC; MAC NIH C1-1, SQ641 + CLA): 2.0 | MIC Combination (MAC; MAC NIH C1-1, combination SQ641 + AMK): 0.5 µg/mL | MIC Combination (MAC; MAC NIH C1-1, combination SQ641 + CLA): 2.0 µg/mL | MIC Combination (MAC; MAC NIH C1-1, combination SQ641 + EMB): 0.06 µg/mL | MIC (MAC; MAC A5): 0.25 µg/mL | MIC (MAC; MAC JSH1): 1 µg/mL | MIC (MAC; MAC NIH C1-1): 2 µg/mL | MIC ([1]; H37RV, MTB strain H37Rv): 1 µg/mL (≈ 1.36 µM) | MIC90 ([1]; MTB): 4 µg/mL (≈ 5.42 µM) | MIC ([1]; MTB strain 16): 4 µg/mL (≈ 5.42 µM) | MIC ([1]; MTB strain 113): 1 µg/mL (≈ 1.36 µM) | MIC ([1]; MTB strain 158): 4 µg/mL (≈ 5.42 µM) | MIC ([1]; MTB strain 606): 4 µg/mL (≈ 5.42 µM) | MIC ([1]; MTB strain 847): 4 µg/mL (≈ 5.42 µM) | MIC ([1]; MTB strain 1351): 1 µg/mL (≈ 1.36 µM) | MIC ([1]; MTB strain 1407): 2 µg/mL (≈ 2.71 µM) | MIC ([1]; MTB strain 1498): 4 µg/mL (≈ 5.42 µM) | MIC ([1]; MTB strain 1665): 2 µg/mL (≈ 2.71 µM) | MIC ([1]; MTB strain 1703): 4 µg/mL (≈ 5.42 µM) | MIC ([1]; MTB strain 1760): 8 µg/mL (≈ 10.8 µM) | MIC ([1]; MTB strain 1782): 2 µg/mL (≈ 2.71 µM) | MIC ([1]; MTB strain 1901): 4 µg/mL (≈ 5.42 µM) | MIC ([1]; MTB strain 1921): 4 µg/mL (≈ 5.42 µM) | MIC ([1]; MTB strain 2224): 4 µg/mL (≈ 5.42 µM) | MIC ([1]; MTB strain 2554): 4 µg/mL (≈ 5.42 µM) | MIC ([1]; MTB strain 2693): 8 µg/mL (≈ 10.8 µM) | MIC ([1]; MTB strain 8266): 2 µg/mL (≈ 2.71 µM) | MIC ([1]; MTB strain 8642): 4 µg/mL (≈ 5.42 µM) | MIC [2]: 2 µg/mL (≈ 2.71 µM) | MIC ([2]; Mycolicibacterium smegmatis, MC2155|MC^2155, read-out: MIC): 2 µg/mL (≈ 2.71 µM) | PAE (post-antibiotic effect) (MTB-H37Rv; 4 μg/ml, 2 hr of exposure): 55 h | PAE of SQ641 relative to INH (MTB-H37Rv; each at 4 μg/ml): over 3 times | Mean RLU at Day 7 ([3]; Expt 1, one day drug exposure, 5 μg/ml, Day 0 RLU 104, CONTROL Day 7 906): 95 RLU | Mean RLU at Day 7 ([3]; Expt 1, one day drug exposure, 10 μg/ml, Day 0 RLU 104, CONTROL Day 7 906): 64 RLU | Mean RLU at Day 7 ([3]; Expt 1, one day drug exposure, 20 μg/ml, Day 0 RLU 104, CONTROL Day 7 906): 47 RLU | Mean RLU at Day 7 ([3]; Expt 2, four days drug exposure, 4 μg/ml, Day 0 RLU 205, CONTROL Day 7 491): 62 RLU | Mean RLU at Day 7 ([3]; Expt 2, four days drug exposure, 8 μg/ml, Day 0 RLU 205, CONTROL Day 7 491): 32 RLU | Mean RLU at Day 7 ([3]; Expt 2, four days drug exposure, 16 μg/ml, Day 0 RLU 205, CONTROL Day 7 491): 17 RLU | Mean RLU at Day 7 ([3]; Expt 2, four days drug exposure, 32 μg/ml, Day 0 RLU 205, CONTROL Day 7 491): 8 RLU
